Assay results reported in patent publication US6492360B1, “Phthalazine derivatives phosphodiesterase 4 inhibitors” (Zambon Group S.p.A., priority 1998, dated 2002).

How the values were obtained:
PDE 5 = target: T1, PDE 5 (Homo sapiens, UniProt O76074); experiment: PDE 5 enzyme inhibition (SPA); format: biochemical; conditions: 10^−6 M; PDE 5 from human platelets; cGMP
T1 construct: The fractions containing the enzymatic activities (PDE 3 or PDE 5) were pooled; from tissue; host or cells: human platelets from platelet rich plasma of healthy volunteers
Procedure: (§1) a) Human Platelet Preparation
(§2) Human platelets were prepared from platelet rich plasma (PRP) obtained from healthy volunteers. The PRP was centrifuiged at 2,200 rpm for 15 minutes at 4° C. and the pellet was suspended in lysis solution (15 ml; 155 mM NH4Cl, 10 mM KHCO3 and 0.1 mM Na2EDTA, pH=7.4) and incubated for 10 minutes on ice-bath to remove the erythrocyte contamination. After centrifugation at 1,400 rpm for 10 minutes at 4° C., platelets were suspended in 10 ml of […], 5 mM KCl, 1 mM MgSO4, 10 mM glucose, 10 mM HEPES (pH 7.4) and 0.05 U/ml of hirudin, and stored at −20° C. until homogenisation. Platelets were thawed and 50 ml of 20 mM TRIS (pH=6.5) containing 5 mM β-mercapto-ethanol, 2 mM EDTA, 50 mM sodium acetate and 50 μM PMSF (homogenisation buffer) were added. The platelet suspension was then homogenised by a Polytron homogeniser (Polytron PT 1200) for 20 seconds. The homogenate was centrifuged at 14,500 rpm for 20 minutes at 4° C., and the supernatant was applied to an UNO Q12 column (Bio-Rad). The PDE 3 and PDE 5 were eluted by sodium acetate linear gradient from 0.05M to 1M using a flow rate of 4.5 ml/minutes. The fractions containing the enzymatic activities (PDE 3 or PDE 5) were pooled, dialysed against water and concentrated 10 times by ultrafiltration. The PDE 3 and PDE 5 fractions were stored at −20° C. in the presence of ethylene glycol (30% v/v) until use.
(§3) b) PDE 3 and PDE 5 Activity Assay
(§4) The enzyme activity was evaluated with a Scintillation Proximity Assay (SPA) kit (Amersham). The enzymatic reaction was performed in a final volume of 100 μl of TRIS/HCl buffer (50 mM, pH7.5), MgCl2 (8.3 mM), EGTA (1.7 mM), cAMP (for PDE 3 assay) or cGMP (for PDE 5 assay) (1 μM), [^3H]cAMP or [^3H]cGMP (10 μl ), and 10 μl of the compounds of the invention or vehicle. The reaction was started by adding the enzyme (1.0 μg) and incubated for 40 minutes at 30° C. SPA beads (50 μl) containing 18 mM zinc sulphate were added to stop the reaction and after 20 minutes at room temperature the radioacticity was measured using a scintillation counter.
(§5) The compounds were tested at 10^−6M and the results are expressed as percent of inhibition.

[1] = system: TNFα release from human monocytes; experiment: TNFα release inhibition in LPS-stimulated monocytes; format: cell-based; conditions: Monocyte, LPS 1 ng/ml, 16 hours, ELISA
Procedure: a) Human Monocyte Isolation
The monocytes were isolated from peripheral blood of healthy volunteers according to the procedure of Schreek L. et al. (J. Natl. Cancer Inst., 1964, 32, 507). The monocyte and lymphocyte population was isolated by Ficoll gradient centrifugation, and the cells diluted at a density of 2.5×10^6 cells/ml in RPMI1640 incubation medium containing 1% heat-inactivated foetal calf serum, penicillin (100 U/ml) and streptomycin (100 μg/ml) were plated in 24-wells plates (1 ml/well) and left to adhere for 1 hour at 37° C. with 5% CO2. Non-adherent lymphocytes were removed by aspiration and the monocytes adhered to the plate were used in the next step.
The TNFα release from human monocytes was measured according to the method of Barnette M. et al. (Biochemical Pharmacology, 1996, 51, 949). The monocytes were incubated for 1 hour with 1 ml of RPMI1640 incubation medium (1% beat-inactivated foetal calf serum, 100 U/ml penicillin and 100 μg/ml streptomyc in) containing different concentrations of the products according to the present invention or the vehicle for the controls. The TNFα release from monocytes was induced by adding 1 ng/ml of LPS (lipopolysaccharide from E. Coli) and after 16 hours of incubation at 37° C., 5% CO2, the incubation medium was removed, centrifuged and the supernatant stored at −80° C. until TNFα assay by ELISA kit (Amersham). The results are expressed as IC50 following the same calculation explained in example 147.

PDE 3 = target: T2, PDE 3 (Homo sapiens, UniProt Q14432); experiment: PDE 3 enzyme inhibition (SPA); format: biochemical; conditions: 10^−6 M; PDE 3 from human platelets; cAMP
T2 construct: The fractions containing the enzymatic activities (PDE 3 or PDE 5) were pooled; from tissue; host or cells: human platelets from platelet rich plasma of healthy volunteers
Procedure: as §1, §2, §3, §4, §5

PDE 4 = PDE 4 enzyme inhibition (SPA); format: biochemical; conditions: PDE 4 purified from human PMNs; cAMP 1 μM
Procedure: a) Human Polymorphonuclear Leukocyte Isolation
The polymorphonuclear leukocytes (PMNs) were isolated from peripheral blood of healthy volunteers according to Boyum A. (Scand. J. Immunol., 1976, 5th suppl., 9). Briefly, the PMNs were purified by Ficoll-Paque gradient centrifugation followed by sedimentation on dextran and the erythrocyte contamination was eliminated by hypotonic lysis.
b) PDE 4 Enzyme Purification
The human PMNs were suspended in TRIS/HCl buffer (10 mM, pH 7.8) containing MgCl2 (5 mM), EGTA (4 mM), mercaptoethanol (5 mM), TRITON-X100 (1%), pepstatin A (1 μM), PMSF (100 μM) and leupeptin (1 μM), and homogenised by Polytron homogeniser. The homogenate was centrifuged at 25,000×g for 30 minutes at 4° C. and the PDE 4 enzyme was purified by ion exchange chromatography using the FPLC technique according to Schudt C. et al. (Naunyn-Schmidberg's Arch. Pharmacol., 1991, 334, 682). The supernatant was seeded on a UNO Q12 column (Bio-Rad) and the enzyme was eluted by sodium acetate linear gradient from 50 mM to 1M using a flow rate of 4.5 ml/minutes. The fractions containing enzymatic activity were pooled, dialysed against water and concentrated. The PDE 4 enzyme was stored at, −20° C. in the presence of ethylene glycol (30% v/v) until the use.
The enzyme activity was evaluated with a Scintillation Proximity Assay (SPA) kit (Amersham). The enzymatic reaction was performed in a final volume of 100 μl of TRIS/HCl buffer (50 mM, pH 7.5), MgCl2 (8.3 mM), EGTA (1.7 mM), cAMP (1 μM) and [^3H]cAMP (˜100.000 dpm) as tracer. The compounds of the invention, the reference ones or the vehicle were added at different concentrations. As reference compounds 6,7-dimethoxy-4-pyridin-4-yl-methyl)2H-phthalazin-1-one (reference 1) and 6,7-dimethoxy-4-(piperidin-4-yl-methyl)2H-phthalazin-1-one (reference 2) embraced by the general formula of the patent application EP-0 722 936 (in the name of Eisai) were used. The reaction was started by adding 1.5 μg protein and incubated for 40 minutes at 30° C. SPA beads (50 μl) containing 18 mM zinc sulphate were added to stop the reaction and after 20 minutes at room temperature the radioactivity was measured using a scintillation counter.
The IC50 value refers to the nanomolar concentration of the compound required to inhibit cyclic nucleotide hydrolysis by 50%, and it was calculated by non-linear regression analysis.

T2 sequence (Q14432 whole entry): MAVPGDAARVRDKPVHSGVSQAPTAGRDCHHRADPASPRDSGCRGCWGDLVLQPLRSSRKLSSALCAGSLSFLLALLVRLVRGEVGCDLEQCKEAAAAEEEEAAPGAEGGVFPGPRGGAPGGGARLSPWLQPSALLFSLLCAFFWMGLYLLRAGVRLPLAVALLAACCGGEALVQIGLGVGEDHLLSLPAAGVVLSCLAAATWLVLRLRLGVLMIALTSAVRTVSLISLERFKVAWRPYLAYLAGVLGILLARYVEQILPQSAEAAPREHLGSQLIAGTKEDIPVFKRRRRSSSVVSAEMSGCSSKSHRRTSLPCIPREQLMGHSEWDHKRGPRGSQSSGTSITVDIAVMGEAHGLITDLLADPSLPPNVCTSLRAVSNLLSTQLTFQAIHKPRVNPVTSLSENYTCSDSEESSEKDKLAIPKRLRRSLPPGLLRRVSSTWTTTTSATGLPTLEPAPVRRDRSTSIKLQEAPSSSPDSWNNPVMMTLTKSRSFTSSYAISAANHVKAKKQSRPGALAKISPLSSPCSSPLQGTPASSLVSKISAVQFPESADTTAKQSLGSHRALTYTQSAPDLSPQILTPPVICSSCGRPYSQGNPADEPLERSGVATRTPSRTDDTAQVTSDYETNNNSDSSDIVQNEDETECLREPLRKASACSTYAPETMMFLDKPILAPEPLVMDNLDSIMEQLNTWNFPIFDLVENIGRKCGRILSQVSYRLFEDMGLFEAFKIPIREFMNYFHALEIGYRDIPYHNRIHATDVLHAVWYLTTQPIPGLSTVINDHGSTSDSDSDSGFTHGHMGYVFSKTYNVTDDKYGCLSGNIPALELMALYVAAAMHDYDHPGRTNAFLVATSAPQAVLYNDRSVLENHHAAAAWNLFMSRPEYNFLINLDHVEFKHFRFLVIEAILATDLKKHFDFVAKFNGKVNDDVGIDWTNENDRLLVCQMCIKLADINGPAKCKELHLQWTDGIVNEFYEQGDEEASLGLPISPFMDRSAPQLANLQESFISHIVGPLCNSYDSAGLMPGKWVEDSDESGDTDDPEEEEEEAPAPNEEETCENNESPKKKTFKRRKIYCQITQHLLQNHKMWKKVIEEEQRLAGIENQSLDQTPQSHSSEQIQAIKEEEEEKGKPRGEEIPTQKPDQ

Compound | inhibition at 1 µM (PDE 5) [%] | IC50 [1] [µM] | inhibition at 1 µM (PDE 3) [%] | IC50 (PDE 4) [µM]
COc1ccc2c(Cc3c(Cl)cncc3Cl)nnc(-c3ccccc3)c2c1 [Compound 5, 1-(3,5-Dichloro-pyridin-4-ylmethyl)-6-methoxy-4-phenyl-phthalazine] | 21 | 0.046 ± 0.015 | 7 | 0.037 ± 0.006
COc1ccc2c(c1)CN(C(C)=O)N=C2Cc1c(Cl)cncc1Cl [Compound 8, 1-[4-(3,5-Dichloro-pyridin-4-ylmethyl)-7-methoxy-1H-phthalazin-2-yl]-ethanone] | 35 | 0.048 ± 0.014 | 12 | 0.051 ± 0.007
COc1ccc2c(Cc3c(Cl)cncc3Cl)nnc(-n3cncn3)c2c1 [Compound 29, 1-(3,5-Dichloro-pyridin-4-ylmethyl)-6-methoxy-4-[1,2,4]triazol-1-yl-phthalazine] | 1 | 0.073 ± 0.021 | -4 | 0.241 ± 0.073

Further lines, results first:

inhibition at 1 µM (PDE 5) [%] | IC50 [1] [µM] | inhibition at 1 µM (PDE 3) [%] | IC50 (PDE 4) [µM] | Compound
10 | 0.0091 ± 0.0029 | -10 |  | COc1ccc2c(Cc3c(Cl)cncc3Cl)nnc(N3CCCC3)c2c1 [Compound 49, 1-(3,5-Dichloropyridin-4-ylmethyl)-6-methoxy-4-pyrrolidin-1-yl-phthalazine]
14 | 0.26 ± 0.044 | -9 | 0.364 ± 0.067 | COc1ccc2c(Cc3c(Cl)cncc3Cl)nnc(CN3CCOCC3)c2c1 [Compound 56, 1-(3,5-Dichloro-pyridin-4-ylmethyl)-6-methoxy-4-morpholin-4-ylmethyl-phthalazine]
1 | 0.062 ± 0.017 | -2 | 0.132 ± 0.03 | COc1ccc2c(Cc3c(Cl)cncc3Cl)nnc(N3CCOCC3)c2c1 [Compound 38, 1(3,5-Dichloro-pyridin-4-ylmethyl)-6-methoxy-4-morpholin-4-yl-phthalazine]
